Each structure is given as a SMILES string. Values after ≈ are worked out from the molar mass of the structure shown.

In general, EC50 refers to the concentration giving half of the maximal effect. The solubility is how much of the substance goes into solution per volume. A lower solubility goes with a poorly soluble substance. In general, hepatocyte CLint refers to a measure of how fast metabolising enzymes remove a compound, apart from limits set by blood flow. A low value points to slow turnover. The microsomal CLint is the capacity of the preparation to metabolise the compound, expressed as a volume cleared per time. Lower therefore signals slow turnover.

Series [1] addresses T1, human RXFP1 (Homo sapiens, UniProt Q9HBX9).
T1 sequence (Q9HBX9 1-757): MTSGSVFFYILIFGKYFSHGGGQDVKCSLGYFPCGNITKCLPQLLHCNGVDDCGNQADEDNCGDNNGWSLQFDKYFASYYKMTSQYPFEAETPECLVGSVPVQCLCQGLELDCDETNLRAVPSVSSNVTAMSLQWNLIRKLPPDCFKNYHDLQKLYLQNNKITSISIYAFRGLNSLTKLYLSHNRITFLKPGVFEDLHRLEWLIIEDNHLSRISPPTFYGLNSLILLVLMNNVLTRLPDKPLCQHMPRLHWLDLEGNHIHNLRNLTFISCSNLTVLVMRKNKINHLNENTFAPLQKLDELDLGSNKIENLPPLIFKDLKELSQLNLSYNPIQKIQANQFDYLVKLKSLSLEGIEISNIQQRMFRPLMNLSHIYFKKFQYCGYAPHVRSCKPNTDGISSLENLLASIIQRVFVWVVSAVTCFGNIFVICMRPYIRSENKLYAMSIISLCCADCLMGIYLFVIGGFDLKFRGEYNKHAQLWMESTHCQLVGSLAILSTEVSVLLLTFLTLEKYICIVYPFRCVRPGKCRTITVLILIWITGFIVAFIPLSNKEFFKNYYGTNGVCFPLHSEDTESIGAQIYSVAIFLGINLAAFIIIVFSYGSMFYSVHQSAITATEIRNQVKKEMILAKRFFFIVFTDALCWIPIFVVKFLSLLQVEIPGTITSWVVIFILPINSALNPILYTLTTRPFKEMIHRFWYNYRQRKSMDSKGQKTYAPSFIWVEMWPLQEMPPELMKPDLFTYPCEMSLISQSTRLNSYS
The series can be described thus: RXFP1 Hu cAMP (Test A). The following applies: RXFP1 Hu cAMP. Also noted: expressed in transfected cells; host or cells: Jump-In T-REx CHO-K1 cells (ThermoFisher), induced with 10 ng/ml doxycycline for 24 h. In kind it is cell-based. The gist of the method: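 CHO-K1 (Jump-In T-REx), RXFP1 induced w/ 10 ng/ml doxycycline 24 h, cryopreserved. 0.5 mM IBMX final. cAMP by HTRF, 2 h RT, std curve.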

Series [2] in a line: Solubility (Test F). It counts as physicochemical. The following applies: arithmetic mean if run multiple times. As to the method:
The assay was conducted according to the Solubility Assay described in pages 164-167 of Wernevik, J. et al., “A Fully Integrated Assay Panel for Early Drug Metabolism and Pharmacokinetics Profiling”, Assay and Drug Development Technologies, 2020, 18(4), 157-179. Data are reported in Table 36 as solubility ([…]. Where the assay was run multiple times for the same compound, the arithmetic mean is reported.

Series [3] can be described thus: Human Hepatocyte Stability (Test D). In kind it is in vitro ADME. The conditions noted are these: human, cryopreserved pooled human hepatocytes (LiverPool 10-Donor), geometric mean if run multiple times. The gist of the method:
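Pooled 10-donor cryopreserved human hepatocytes (≥80% viable) in L-15 medium at 0.25×10^6 cells per 0.25 mL well. Compound added from 100 μM acetonitrile solution; incubated at 37 °C with shaking, acetonitrile-quenched, LC-MS analysed. Clint (μL/min/10^6 cells) from ln % parent vs time slope; geometric mean of repeat runs.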

A short description of series [4]: Human Plasma Protein Binding (Test B). It counts as in vitro ADME. The conditions noted are these: fraction unbound (fu). The gist of the method: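 Human plasma protein binding run per the published Wernevik et al. (2020) integrated DMPK panel protocol. Values are fraction unbound (fu, % free); repeat runs averaged arithmetically.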
The nature of series [5]: Human Liver Microsomal Stability (Test C). In kind it is in vitro ADME. The following applies: human, liver microsomes. In outline:
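Human liver microsome incubation per the Wernevik et al. integrated DMPK panel protocol. Intrinsic clearance reported as CLint in μl/min/mg protein, averaged arithmetically over repeat runs.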
On the technique in general: Liver microsomes are vesicles of endoplasmic reticulum, rich in cytochrome P450 enzymes.

The nature of series [6]: Rat Hepatocyte Stability (Test E). It counts as in vitro ADME. The following applies: rat, hepatocytes, geometric mean if run multiple times. In outline: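 Run per the published AstraZeneca-type rat hepatocyte stability protocol (Wernevik et al. panel). Values are mean intrinsic clearance, Clint in μl/min/10^6 cells; geometric mean used for repeated runs.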

As to `COc1cc(F)c(Oc2ccc(C(=O)O)cc2)cc1C(=O)N[C@H]1[C@@H](C(=O)Nc2cccc(S(=O)(=O)C(F)(F)F)c2)[C@@H]2C=C[C@H]1C2` (racemic) [Example 484], the “Test A Sinf” value in series [1] amounted to 101%. For the same compound, the half-maximal effective concentration (EC50) in series [1] (read-out: Test A EC50) was found to be 250 nM. For the same compound, in series [2], the solubility amounted to 400 µM (≈ 259 µg/mL). This compound also registered a hepatocyte CLint at 1 µM in series [3] of 7.2 µL/min/1e6 cells. The “Test B Human Plasma Protein Binding (% free)” value in series [4] is on record as below 0.31 % free. Besides, the microsomal CLint in series [5] came to 9.4 µL/min/mg. The hepatocyte CLint in series [6] turned out to be 13 µL/min/1e6 cells.
As to `COc1cc(F)c(O[C@H]2CC[C@@](C)(C(=O)O)CC2)cc1C(=O)N[C@@H]1[C@H]2CC[C@H](C2)[C@@H]1C(=O)NCC(C)(C)C(F)(F)F` [Example 38, (1S,4s)-4-(2-Fluoro-4-methoxy-5-(((1S,2R,3S,4R)-3-((3,3,3-trifluoro-2,2-dimethylpropyl)carbamoyl)bicyclo[2.2.1]heptan-2-yl)carbamoyl)phenoxy)-1-methylcyclohexane-1-carboxylic acid], the solubility in series [2] turned out to be 38 µM (≈ 22.3 µg/mL). The hepatocyte CLint at 1 µM in series [3] is 4.2 µL/min/1e6 cells. The “Test B Human Plasma Protein Binding (% free)” value in series [4] amounted to 5.6 % free. Also, the microsomal CLint in series [5] stood at 13 µL/min/mg. The hepatocyte CLint in series [6] was 9 µL/min/1e6 cells.
`COc1cc(F)c(O[C@H]2CC[C@@](C)(C(=O)O)CC2)cc1C(=O)N[C@@H]1[C@H]2CC[C@H](C2)[C@@H]1C(=O)NCC(C)C` [Example 34, (1S,4s)-4-(2-Fluoro-5-(((1S,2R,3S,4R)-3-(isobutylcarbamoyl)bicyclo[2.2.1]heptan-2-yl)carbamoyl)-4-methoxyphenoxy)-1-methylcyclohexane-1-carboxylic acid] showed a solubility in series [2] of 880 µM (≈ 456 µg/mL). Besides, the hepatocyte CLint at 1 µM in series [3] is below 1 µL/min/1e6 cells. Moreover, in series [4], the “Test B Human Plasma Protein Binding (% free)” value is recorded as 4.8 % free. Besides, the microsomal CLint in series [5] is 5.7 µL/min/mg. Also, in series [6], the intrinsic clearance (hepatocyte CLint) came out at 19 µL/min/1e6 cells.
In the case of `COc1cc(C#N)c(O[C@H]2CC[C@@](C)(C(=O)O)CC2)cc1C(=O)N[C@H]1C(C(=O)NCC(C)(C)C)[C@@H]2CC[C@H]1C2` (stereo partly drawn) [Example 621, (1S,4s)-4-(2-cyano-4-methoxy-5-(((1S,2R,3S,4R)-3-(neopentylcarbamoyl)bicyclo[2.2.1]heptan-2-yl)carbamoyl)phenoxy)-1-methylcyclohexane-1-carboxylic acid], the concentration in solution in series [2] (solubility) was 910 µM (≈ 491 µg/mL). The compound also displayed a hepatocyte CLint at 1 µM in series [3] below 1.2 µL/min/1e6 cells. In addition, the “Test B Human Plasma Protein Binding (% free)” value in series [4] turned out to be 12 % free. In addition, the microsomal CLint in series [5] was below 3 µL/min/mg. This compound came in with an intrinsic clearance (hepatocyte CLint) in series [6] of 15 µL/min/1e6 cells.
The compound `COc1cc(C#N)c(O[C@H]2CC[C@@](C)(C(=O)O)CC2)cc1C(=O)N[C@@H]1[C@@H]2CC[C@@H](C2)[C@@H]1C(=O)NCC1(C)CCC1` [Example 388] gave a solubility in series [2] of 680 µM (≈ 375 µg/mL). Moreover, the hepatocyte CLint at 1 µM in series [3] was determined as 49 µL/min/1e6 cells. In addition, the “Test B Human Plasma Protein Binding (% free)” value in series [4] is listed as 3.4 % free. In series [5], this compound showed an intrinsic metabolic clearance (microsomal CLint) of 34 µL/min/mg. For the same compound, the hepatocyte CLint in series [6] is 55 µL/min/1e6 cells.
Consider `COc1cc(F)c(O[C@H]2CC[C@@](CC#N)(C(=O)O)CC2)cc1C(=O)N[C@@H]1[C@H]2CC[C@H](C2)[C@@H]1C(=O)NCC1(C)CCC1` [Example 424, (1S,4s)-1-(Cyanomethyl)-4-(2-fluoro-4-methoxy-5-(((1S,2R,3S,4R)-3-(((1-methylcyclobutyl)methyl)carbamoyl)bicyclo[2.2.1]heptan-2-yl)carbamoyl)phenoxy)cyclohexane-1-carboxylic acid], for which, in series [2], the solubility was 990 µM (≈ 564 µg/mL). In addition, the hepatocyte CLint at 1 µM in series [3] turned out to be 10 µL/min/1e6 cells. In addition, the “Test B Human Plasma Protein Binding (% free)” value in series [4] is 6.7 % free. The compound also registered a microsomal CLint in series [5] of 13 µL/min/mg. In series [6], this compound yielded a hepatocyte CLint of 21 µL/min/1e6 cells.
Compound `COc1cc(C(F)F)c(O[C@H]2CC[C@@](C)(C(=O)O)CC2)cc1C(=O)N[C@@H]1[C@H]2CC[C@H](C2)[C@@H]1C(=O)NCC1(C)CCC1` [Example 373] gave a solubility in series [2] of 1000 µM (≈ 577 µg/mL). The hepatocyte CLint at 1 µM in series [3] stood at 5.1 µL/min/1e6 cells. In addition, in series [4], the “Test B Human Plasma Protein Binding (% free)” value is on record as 3.9 % free. The compound also returned a microsomal CLint in series [5] of 23 µL/min/mg. The same compound registered a hepatocyte CLint in series [6] of 16 µL/min/1e6 cells.
For the compound `CCc1cc(OC)c(C(=O)N[C@@H]2[C@H]3CC[C@H](C3)[C@@H]2C(=O)NCC2(C)CCC2)cc1O[C@H]1CC[C@@](C)(C(=O)O)CC1` [Example 376], the solubility in series [2] came to 300 µM (≈ 166 µg/mL). In addition, in series [3], the hepatocyte CLint at 1 µM stood at 3.9 µL/min/1e6 cells. In addition, the “Test B Human Plasma Protein Binding (% free)” value in series [4] is on record as 2.5 % free. Moreover, the intrinsic clearance (microsomal CLint) in series [5] was determined as 44 µL/min/mg. For the same compound, the hepatocyte CLint in series [6] amounted to 28 µL/min/1e6 cells.
For `COc1cc(F)c(O[C@H]2CC[C@@](CO)(C(=O)O)CC2)cc1C(=O)N[C@@H]1[C@H]2CC[C@H](C2)[C@@H]1C(=O)NCC1(C)CCC1` [Example 364], in that order: above 1000 µM, 6.2 µL/min/1e6 cells, 11 % free, below 5.1 µL/min/mg and 19 µL/min/1e6 cells.
`COc1cc(C#N)c(O[C@H]2CC[C@@](C)(C(=O)O)CC2)cc1C(=O)N[C@@H]1[C@H]2CC[C@H](C2)[C@@H]1C(=O)NC12CC(F)(C1)C2` [Example 622] displayed a solubility in series [2] above 860 µM. This compound also displayed a hepatocyte CLint at 1 µM in series [3] of 1.7 µL/min/1e6 cells. Moreover, the “Test B Human Plasma Protein Binding (% free)” value in series [4] worked out at 17 % free. Also, the intrinsic clearance (microsomal CLint) in series [5] is below 5.1 µL/min/mg. In series [6], this compound came in with a hepatocyte CLint of 11 µL/min/1e6 cells.
For `COc1c(Cl)cc(O[C@H]2CC[C@@](C)(C(=O)O)CC2)cc1C(=O)N[C@@H]1[C@H]2CC[C@H](C2)[C@@H]1C(=O)NCC1(C)CCC1` [Example 403], in that order: 660 µM (≈ 370 µg/mL), 13 µL/min/1e6 cells, 1.5 % free, 81 µL/min/mg and 25 µL/min/1e6 cells.
For `COc1cc(F)c(O[C@H]2CC[C@@](C)(C(=O)O)CC2)cc1C(=O)N[C@@H]1[C@H]2CC[C@H](C2)[C@@H]1C(=O)N[C@H](C)C(C)(C)C` [Example 36, (1S,4s)-4-(5-(((1S,2R,3S,4R)-3-(((R)-3,3-Dimethylbutan-2-yl)carbamoyl)bicyclo[2.2.1]heptan-2-yl)carbamoyl)-2-fluoro-4-methoxyphenoxy)-1-methylcyclohexane-1-carboxylic acid], in that order: 22 µM (≈ 12 µg/mL), 5.8 µL/min/1e6 cells, 6.9 % free, 33 µL/min/mg and 7.2 µL/min/1e6 cells.
As for `CC1(CNC(=O)[C@H]2[C@@H]3CC[C@@H](C3)[C@H]2NC(=O)c2cc(O[C@H]3CC[C@@](C)(C(=O)O)CC3)c(F)cc2F)CCC1` [Example 393, (1S,4s)-4-(2,4-Difluoro-5-(((1S,2R,3S,4R)-3-(((1-methylcyclobutyl)methyl)carbamoyl)bicyclo[2.2.1]heptan-2-yl)carbamoyl)phenoxy)-1-methylcyclohexane-1-carboxylic acid], the solubility in series [2] turned out to be 53 µM (≈ 28.2 µg/mL). This compound also gave an intrinsic clearance (hepatocyte CLint) at 1 µM in series [3] of 6.7 µL/min/1e6 cells. Moreover, the “Test B Human Plasma Protein Binding (% free)” value in series [4] came to 1.4 % free. This compound also registered an intrinsic clearance (microsomal CLint) in series [5] of 37 µL/min/mg. Also, in series [6], the hepatocyte CLint stood at 12 µL/min/1e6 cells.

(Values after patent US11667602B2, “Compounds and their use” (AstraZeneca AB, priority 2020, dated 2023).)
